Measured values published in patent publication US20080188449A1, “Treatment of Conditions Caused By Calcium Abnormalities” (priority 2004, published 2008).

Columns and labels:
Type in all cases: cell-based
[1] = system: polycystin-2; experiment: Fluo-4 calcium imaging in murine kidney epithelial cells
Source text: (§1) Murine kidney epithelial cell lines with differing polycystin-1 or polycystin-2 expression were used to establish a cellular based mechanism for polycystin-2 mediated calcium release in response to triptolide. Because the biochemical purification analysis identified polycystin-2 as a putative triptolide binding protein, Applicants assessed whether the calcium release was dependent upon expression of polycystin-1. Epithelial cells derived from the proximal nephric tubules of Pkd1^−/− mice were first examined to determine if calcium release was observed when 100 nM of triptolide was perfused through the imaging chamber. […] To strengthen the evidence that polycystin-2 was necessary for calcium release elicited by triptolide addition, it was reconstituted by stable expression of Pkd2 into the background of Pkd2^−/− cells, which were assessed for sensitivity to triptolide.
(§2) Cells were plated on coverslips and loaded with Fluo-4 (Molecular Probes) diluted in DMSO/pluronic for 30 minutes prior to imaging. Cells were perfused with a calcium imaging buffer (HEPES, NaCl, KCl, MgSO4 and CaCl2)±100 nM triptolide. All cell traces are indicative of individual cellular fluorescence and calcium release. Data is presented as change of fluorescence over baseline control (no triptolide addition).

[2] = biological target: T1, polycystin-2 (Mus musculus, UniProt O35245); experiment: as above; conditions: 100 nM perfused, Pkd1^−/− cells
T1 construct: murine cell lines were derived from knockout and transgenic mice as previously reported; endogenous in cells; host or cells: Murine kidney proximal tubule epithelial cells, Pkd1-/- (MN24)
T1 sequence (O35245 1-966): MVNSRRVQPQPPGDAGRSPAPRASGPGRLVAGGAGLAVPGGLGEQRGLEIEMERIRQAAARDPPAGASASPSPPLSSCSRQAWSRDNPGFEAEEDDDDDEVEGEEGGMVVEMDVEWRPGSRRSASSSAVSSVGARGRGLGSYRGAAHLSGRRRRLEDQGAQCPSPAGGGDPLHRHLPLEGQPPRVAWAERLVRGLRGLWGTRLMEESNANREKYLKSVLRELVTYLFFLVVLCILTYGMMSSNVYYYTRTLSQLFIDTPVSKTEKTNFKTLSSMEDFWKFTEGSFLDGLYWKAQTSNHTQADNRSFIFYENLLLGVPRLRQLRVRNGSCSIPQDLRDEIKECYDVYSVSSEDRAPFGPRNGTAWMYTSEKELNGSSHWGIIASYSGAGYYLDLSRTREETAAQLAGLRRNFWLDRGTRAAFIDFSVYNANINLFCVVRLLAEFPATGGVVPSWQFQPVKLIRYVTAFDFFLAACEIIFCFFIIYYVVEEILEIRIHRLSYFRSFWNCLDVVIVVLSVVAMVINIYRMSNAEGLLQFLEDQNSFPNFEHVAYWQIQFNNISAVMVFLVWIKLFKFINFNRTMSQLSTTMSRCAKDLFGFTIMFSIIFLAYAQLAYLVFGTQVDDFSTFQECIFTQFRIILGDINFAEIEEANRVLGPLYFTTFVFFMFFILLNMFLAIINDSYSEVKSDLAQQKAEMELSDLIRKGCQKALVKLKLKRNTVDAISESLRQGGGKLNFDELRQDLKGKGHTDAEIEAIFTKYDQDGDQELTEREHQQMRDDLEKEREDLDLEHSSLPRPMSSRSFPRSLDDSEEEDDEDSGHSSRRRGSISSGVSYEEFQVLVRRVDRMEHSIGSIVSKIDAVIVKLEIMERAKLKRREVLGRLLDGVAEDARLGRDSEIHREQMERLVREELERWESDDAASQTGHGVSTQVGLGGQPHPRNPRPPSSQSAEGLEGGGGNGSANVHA
Source text: as §1, §2

[3] = system: HeLa cells; experiment: Viability of parvalbumin-GFP transfected HeLa cells; conditions: 100 nM
Source text: To investigate further the role of calcium in triptolide function Applicants utilized a system to buffer intracellular calcium levels. Various GFP-parvalbumin (PV) fusion proteins can be specifically localized to either the nucleus or the cytoplasm through a nuclear localization or exclusion signal (NLS or NES, respectively) (Pusl, et al., 2002, J Biol Chem 277, 27517-27527). Parvalbumin has two EF-hand calcium binding domains and can efficiently reduce the availability of free calcium in the cell (Pauls, et al., 1996, Biochim Biophys Acta 1306, 39-54). HeLa cells were transiently transfected with the GFP vector control, NES-PV-GFP, or NLS-PV-GFP in calcium containing media and efficient expression of each construct was determined by GFP localization (FIG. 4A). Normal cell growth was first assessed throughout 48 hours with each of the constructs. […] For triptolide experiments, cells were transfected and allowed to express the construct for 24 hours before the addition of 100 nM triptolide. After 24 and 48 hours of treatment, cells were assessed for viability. […]
All parvalbumin-GFP constructs and control vectors (Pusl, et al., 2002, J Biol Chem 277, 27517-27527) were a gift of Anton Bennett (Yale University). […] Cell viability was assessed at 24 and 48 hours post triptolide addition by morphology and trypan blue dye exclusion.

[4] = system: NFκB transactivation; experiment: κB-luciferase reporter assay (TNF-α induced); conditions: 10 nM triptolide+TNF-α, after 24 hours

CC(C)[C@]12O[C@H]1[C@@H]1O[C@]13[C@]1(O[C@H]1C[C@H]1C4=C(CC[C@@]13C)C(=O)OC4)[C@@H]2O [triptolide, Triptolide]
calcium release ([1]; 100 nM perfused, Pkd2^−/− cells): no calcium release was detected
calcium release ([1]; 100 nM, Pkd2 re-expressed in Pkd2^−/− cells): restored calcium release
calcium release [2]: clear rise in intracellular calcium levels
cell death ([3]; all transfection conditions, 48 hours): complete cell death
cells rounded and no longer viable ([3]; control GFP vector or NLS-PV-GFP, 24 hours): 50%
luciferase activity induction [4]: > 20 fold
